What was measured:
[1] = target: recombinant Mcl-1 (residues 172-327) (Homo sapiens (Human), UniProt Q07820); assay: Fluorescence polarization anisotropy competition assay (FITC-Bak or FITC-Bim BH3 peptide) with Mcl-1; assay type: binding; details: Table 2; Ki bins given in nM; FITC-Bak or FITC-Bim peptide competition; Ki converted from IC50; read-out: Ki for Inhibition of Mcl-1
ALMC-1 = assay: Cellular viability (Cell TiterGlo) ALMC-1; assay type: cell-based; details: Homo sapiens, ALMC1; ALMC-1 cells, 72 hours, 10% FBS; read-out: IC50 on cellular proliferation, ALMC-1
Method: (§1) Human cancer cell lines ALMC-1, ALMC-2, K562, H929, and OPM-2 were cultured in media supplemented with 10% fetal bovine serum (FBS). To evaluate compound effect on cellular proliferation, cells were plated at 1,000 cells/well in 96-well tissue culture plates in a total volume of 90 μL medium supplemented with 10% FBS (Sigma, Saint Louis, Mo.). 24 hours later, 10 μL of compound (in a 2-fold serial dilution) is added to the cells for a top concentration of 50 μM and a final DMSO concentration <1%. After 72 hours, 50 μL of Cell TiterGlo (Promega, Madison, Wis., USA) reagent is added to each well and plates are incubated at room temperature, in the dark, for 30 minutes. Luminescence is measured on a BioTek Cytation 3. Luminescence values are imported into a template in XLFit (Guildford, Surrey, UK) that uses a four-parameter fit to generate an IC50 value for each compound dilution series on the plate.

ALMC-2 = assay: Cellular viability (Cell TiterGlo) ALMC-2; assay type: cell-based; details: Homo sapiens, ALMC2; ALMC-2 cells, 72 hours, 10% FBS; read-out: IC50 on cellular proliferation, ALMC-2
Method: as §1

H929 [2] = assay: Cellular viability (Cell TiterGlo) H929; assay type: cell-based; details: Homo sapiens, NCI-H929; H929 cells, 72 hours, 10% FBS; read-out: IC50 on cellular proliferation, H929
Method: as §1

OPM-2 = assay: Cellular viability (Cell TiterGlo) OPM-2; assay type: cell-based; details: Homo sapiens; OPM-2 cells, 72 hours, 10% FBS; read-out: IC50 on cellular proliferation, OPM-2
Method: as §1

K562 = assay: Cellular viability (Cell TiterGlo) K562; assay type: cell-based; details: Homo sapiens; K562 cells, 72 hours, 10% FBS; read-out: IC50 on cellular proliferation, K562
Method: as §1

H929 [3] = assay: Apoptosis assay (Caspase 3/7 Glo) H929; assay type: cell-based; details: Homo sapiens, NCI-H929; H929 cells, 3 hours, 5% FBS; read-out: EC50 on cellular caspase 3/7 activation, H929
Method: Induction of apoptosis was measured by quantifying caspase 3/7 activity using the commercially available Caspase-Glo reagent (Promega, Madison, Wis., USA). This assay relies on the cleavage of a proluminescent substrate by activated caspases, which is then detected on the BioTek Cytation 3. 5000 cells in 90 μL of media (+5% FBS) are plated in each well of a white 96-well plate and incubated overnight at 37° C. in a tissue culture incubator. The following day, compound is diluted in a 10-pt, 2-fold serial dilution scheme for a final top concentration of 50 μM. 10 μL of compound is added directly to the cell assay plate for a final volume of 100 μL. Columns 11 and 12 are reserved for treatment with DMSO to serve as control wells. Plates are incubated for 3 hours. 100 μL of Caspase-Glo reagent is added to each well and plates are incubated at room temperature, in the dark, for 30 minutes. Luminescence is measured on the Cytation 3. Luminescence values are imported into a template in XLFit (Guildford, Surrey, UK) that uses a four-parameter fit to generate an IC50 value for each compound dilution series on the plate.

Sequence of recombinant Mcl-1 (residues 172-327) (Q07820 172-327): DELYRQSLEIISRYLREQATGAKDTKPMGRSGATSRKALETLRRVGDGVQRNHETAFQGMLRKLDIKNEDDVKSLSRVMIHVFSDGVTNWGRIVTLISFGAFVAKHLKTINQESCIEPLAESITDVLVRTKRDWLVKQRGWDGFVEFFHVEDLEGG

## Cc1cc(OCCCc2c3n(c4c(-c5c(C)nn(C)c5C)c(Cl)ccc24)CCN(c2cccc(C(=O)O)c2)C3=O)cc(C)c1Cl [I-178, 3-(7-chloro-10-(3-(4-chloro-3,5-dimethylphenoxy)propyl)-1-oxo-6-(1,3,5-trimethyl-1H-pyrazol-4-yl)-3,4-dihydropyrazino[1,2-a]indol-2(1H)-yl)benzoic acid]
[1]
  Ki: < 50 nM
ALMC-1
  IC50: 6.1 µM
ALMC-2
  IC50: 8.7 µM
H929 [2]
  IC50: 8.7 µM
OPM-2
  IC50: 11.7 µM
K562
  IC50: 11.8 µM
H929 [3]
  EC50: 3.1 µM

## Cc1cc(OCCCc2c(C(=O)NC[C@H]3CC[C@H](C(=O)O)CC3)[nH]c3c(-c4c(C)nn(C)c4C)cccc23)cc(C)c1Cl [I-320, (1R,4R)-4-((3-(3-(4-chloro-3,5-dimethylphenoxy)propyl)-7-(1,3,5-trimethyl-1H-pyrazol-4-yl)-1H-indole-2-carboxamido)methyl)cyclohexane-1-carboxylic acid]
[1]
  Ki: < 50 nM
H929 [3]
  EC50: 2.3 µM

From patent publication US10533010B2, “Substituted indole Mcl-1 inhibitors” (Vanderbilt University, priority 2014, dated 2020)
